Assay results from patent publication US9750841B2, “Biodegradable medical adhesive and preparation method and use thereof” (INSTITUTE OF PHARMACOLOGY AND TOXICOLOGY ACADEMY OF …, priority 2011, dated 2017).

How the values were obtained:
[1] = Test of curing time of formulated adhesives on pigskin; format: physicochemical; settings: between two pieces of pigskin, room temperature
Description: Test Method: The medical adhesives of different formulations in Examples 1 and 2 were respectively dropped in a small amount on the surface of one piece of pigskin at room temperature, and the other piece of pigskin was rapidly lapped thereon; the two pieces of pigskin were respectively pulled in opposite directions, to test the adhesion between them. The duration starting from the generation of adhesion between the two pieces of pigskin to the complete cure of the liquid adhesive between the two pieces of pigskin after lapping for a certain time was designated as the curing time.

[2] = Degradation of cured adhesive in PBS buffer; format: physicochemical; settings: 14 days, 0.1 M phosphate buffer pH 7.2-7.4, 37.5° C., average of three samples
Description: After 14 days, the residual solids were weighed. The results were used to evaluate the degradation properties.

[3] = Accelerated degradation in 0.1 N NaOH solution; format: physicochemical; settings: disappearance to the naked eye
Method: Further accelerated degradation test was carried out in a 0.1 N NaOH solution. The operation method was the same as that provided in this example, with the use of formulated adhesive J01 and the control as samples. The time point when the adhesive bond completely disappeared to the naked eye was regarded as the complete degradation time.

[4] = rat, in vivo
Method: Two groups of adult rats, each six, were taken. The abdominal cavity was opened, a section of small intestine was lifted and stretched out with a biodegradable thread, approximately 1 cm away from the body, and in an inverted “U” shape. […] After the adhesive bond was completely cured and the small intestine was adhered together (about 1 minute), the small intestine was put back into the abdominal cavity, followed by suturing. Normal healing time of biological tissue was about 7-10 days. After 2 weeks, the small intestine was stretched out again, for observing the changes of the small intestine per se and the adhesive bond.

[5] = TEM test of adhesive structure; format: physicochemical; settings: 0.1 mg/mL dilution in water, phosphotungstic acid staining
Method: 20 mg of adhesive (A, n-butyl cyanoacrylate as control; B, formulated adhesive J01 (bis-α-cyanoacrylic acid PEG2000 ester:n-butyl cyanoacrylate 1:1, i.e., the formulated adhesive in Example 1) was dissolved in 1 mL of redistilled acetone, to obtain a homogeneous solution, which was diluted by 100-fold. 0.5 mL of the dilution was taken and mixed with 0.5 mL of deionized water. Acetone was distilled off, and water was supplemented till 1 mL, to obtain a 0.1 mg/mL dilution. 15 uL of the dilution was dropped on a copper web-like of electron microscopy, and settled for 15 min. Then, water was removed by adsorption with filter paper. After staining with 5 uL of phosphotungstic acid for 2 min, the samples were observed by transmission electron microscopy.

[6] = Adhesion test of skin incision injury, rats; format: in vivo; settings: 2 cm dorsal skin incision, observed over 7 days
Method: (§1) Five adult rats and five guinea pigs were unhaired on the back, and subjected to abdominal anesthesia. After the back was disinfected, a longitudinal incision of about 2 cm in length was cut about 1 cm next to the dorsal line, deep to muscular layer. […] On the other side of the back, an incision of the same size was cut, and the wound was treated in the same way with the control adhesive n-butyl cyanoacrylate. Finally, the operative sites were bandaged using gauze.

[7] = Adhesion test of skin incision injury, guinea pigs; format: in vivo; settings: 2 cm dorsal skin incision, observed over 7 days
Method: as §1

[8] = Adhesion test of skin incision injury of dog; format: in vivo; settings: 4 cm skin incision, two stitches plus adhesive, after one week
Method: Adult test dogs (purchased from Experimental Animal Center of Academy of Military Medical Sciences) were unhaired on the neck and back, and disinfected. A longitudinal incision of about 4 cm in length was cut on the left side, deep to muscular layer. […] On the other side of the same position, an incision of the same size was cut, and also sutured in two stitches. Then, the wound was treated in the same way with n-butyl cyanoacrylate.

[9] = Intestinal skyrocketing compression test in rats; format: in vivo, SD rats; settings: rat small intestine, 2 mm hole closed with 5 uL adhesive, tested after 3 min, seven animals per group
Method: Twenty SD rats (purchased from Experimental Animal Center of Academy of Military Medical Sciences) were anaesthetized by intraperitoneal injection of 45 mg/kg sodium pentobarbital, and unhaired on the abdomen. The abdominal cavity was opened, and a section of small intestine 45 mm was taken out. One end of the small intestine was ligated with a silk thread, and the other end was cut to make a small incision, which was then connected to a three-way tube in connection with a pressure gauge and a tension transducer. A syringe needle 2 mm in diameter was used to open a small hole in the small intestine. After cleaning off drainage with cotton, the small hole was rapidly closed by smearing 5 uL medical adhesive, and then test was conducted after standing for 3 min. […] The pressure value at this point was just the maximum tolerable pressure. There were seven animals per group, and the average value and variance were calculated.

C=C(C#N)C(=O)OCCCC [n-butyl cyanoacrylate]
curing time [1]: 5 to 15 s
Residual solids % in PBS [2]: 95.74%
complete degradation time in NaOH (solids completely disappeared) [3]: 4 days
changes of the small intestine tissue [4]: significantly had hyperplasia and significantly became thicker
structure observed by transmission electron microscopy [5]: relatively solid and dense microsphere structure
wound closure [6]: well closed
wound closure [7]: well closed
wound healing [8]: good healing
maximum tolerable pressure [9]: 120.22±26.81 mmHg
